Legend:
Assay in all cases: relative viability (nuclei count vs DMSO), 5 days (fraction); higher = more cells survive
[1] = compound: C[C@@H](C(=O)N[C@@H](C1CCCCC1)C(=O)N2CCC[C@H]2C(=O)N[C@@H]3[C@@H](CC4=CC=CC=C34)OCC#CC#CCO[C@@H]5CC6=CC=CC=C6[C@@H]5NC(=O)[C@@H]7CCCN7C(=O)[C@H](C8CCCCC8)NC(=O)[C@H](C)NC)NC [AZD5582] + COc1cccc2cc(-c3nc([C@H]4CC[C@H](C(=O)O)CC4)n4ncnc(N)c34)[nH]c12 [OSI-027] (partner 0.5 µM)
Method in brief: (§1)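 Lung cancer cell lines were seeded in 1536-well plates and dosed by pin tool the next day, with either a single drug or a fixed anchor-drug dose combined with five library-drug doses (not always all listed) spaced in √10 steps. Five days later, one step fixed the cells and stained their nuclei (final 0.05% Triton X-100, 1% formaldehyde, 1 ug/ml Hoechst), and nuclei were counted on 4× images. Relative viability is the nuclei count in treated wells divided by the count in vehicle wells, and each value is the median of duplicate plates.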

[2] = compound: C[C@@H](C(=O)N[C@@H](C1CCCCC1)C(=O)N2CCC[C@H]2C(=O)N[C@@H]3[C@@H](CC4=CC=CC=C34)OCC#CC#CCO[C@@H]5CC6=CC=CC=C6[C@@H]5NC(=O)[C@@H]7CCCN7C(=O)[C@H](C8CCCCC8)NC(=O)[C@H](C)NC)NC [AZD5582] + O=C(CCCCCCC(=O)Nc1ccccc1)NO [Vorinostat] (partner 1 µM)
Method in brief: as §1

[3] = compound: Cn1nnc2c(C(N)=O)ncn2c1=O [Temozolomide] + CC1(C)CCC(c2ccc(Cl)cc2)=C(CN2CCN(c3ccc(C(=O)NS(=O)(=O)c4ccc(N[C@H](CCN5CCOCC5)CSc5ccccc5)c(S(=O)(=O)C(F)(F)F)c4)cc3)CC2)C1 [Navitoclax] (partner 0.5 µM)
Method in brief: as §1

[4] = compound: Cn1nnc2c(C(N)=O)ncn2c1=O [Temozolomide] + C[C@]1(O)C[C@@H](c2nc(-c3ccc4ccc(-c5ccccc5)nc4c3)c3c(N)nccn32)C1 [Linsitinib] (partner 1 µM)
Method in brief: as §1

Cell Line | relative viability ([1]; first compound 0.001581 µM) | relative viability ([1]; first compound 0.005 µM) | relative viability ([1]; first compound 0.01581 µM) | relative viability ([1]; first compound 0.05 µM) | relative viability ([2]; first compound 0.001581 µM) | relative viability ([2]; first compound 0.005 µM) | relative viability ([2]; first compound 0.01581 µM) | relative viability ([2]; first compound 0.05 µM) | relative viability ([3]; first compound 0.2 µM) | relative viability ([3]; first compound 0.6325 µM) | relative viability ([3]; first compound 2 µM) | relative viability ([3]; first compound 6.325 µM) | relative viability ([3]; first compound 20 µM) | relative viability ([4]; first compound 0.2 µM) | relative viability ([4]; first compound 0.6325 µM) | relative viability ([4]; first compound 2 µM) | relative viability ([4]; first compound 6.325 µM) | relative viability ([4]; first compound 20 µM)
201T | 0.721 | 0.831 | 0.675 | 0.492 | 1.05 | 1.11 | 0.919 | 1.22 | 1.17 | 1.18 | 1.21 | 1.2 | 1.22 | 0.975 | 1.07 | 1.11 | 1.04 | 0.991
A549 | – | – | – | – | – | – | – | – | 1.07 | 1.34 | 1.25 | 1.23 | 1.24 | 0.348 | 0.684 | 0.759 | 0.517 | 0.467
A-427 | 0.341 | 0.44 | 0.414 | 0.31 | 0.816 | 0.862 | 0.885 | 0.904 | 0.971 | 0.923 | 0.949 | 0.596 | 0.592 | 1.1 | 1.15 | 1.15 | 0.948 | 0.604
ABC-1 | 0.491 | 0.608 | 0.375 | 0.488 | 1.22 | 1.57 | 0.934 | 1.08 | – | – | – | – | – | 0.899 | 0.83 | 0.943 | 0.716 | 0.771
BEN | 0.295 | 0.301 | 0.349 | 0.282 | 0.53 | 0.568 | 0.591 | 0.555 | 0.0644 | 0.0697 | 0.0579 | 0.0678 | 0.0653 | 0.752 | 0.941 | 0.997 | 0.781 | 0.707
CAL-12T | 0.239 | 0.339 | 0.281 | 0.323 | 0.533 | 0.703 | 0.644 | 0.754 | 1.35 | 1.13 | 1.21 | 1.29 | 1.26 | 0.627 | 0.799 | 0.841 | 0.778 | 0.698
Calu-6 | – | – | – | – | – | – | – | – | 0.927 | 0.804 | 0.942 | 0.82 | 0.781 | 0.929 | 0.941 | 1.17 | 0.971 | 1.02
ChaGo-K-1 | 0.497 | 0.596 | 0.57 | 0.545 | 0.718 | 0.767 | 0.711 | 0.739 | 1.11 | 1.16 | 1.45 | 0.968 | 0.964 | – | – | – | – | –
EBC-1 | – | – | – | – | – | – | – | – | 0.512 | 0.41 | 0.358 | 0.384 | 0.404 | 1.03 | 0.885 | 1.13 | 0.912 | 0.947
IA-LM | – | – | – | – | 0.772 | 0.907 | – | 1 | 0.832 | 0.69 | 0.836 | 0.825 | 0.615 | 0.941 | 0.518 | 0.664 | 0.548 | 0.909
LCLC-103H | 0.465 | 0.486 | 0.375 | 0.37 | 0.736 | 0.797 | 0.429 | 0.636 | – | – | – | – | – | 1.03 | 1.05 | 1.23 | 1.09 | 1.01
NCI-H358 | 0.677 | 0.962 | 0.821 | 0.777 | 0.639 | 0.745 | 0.678 | 0.714 | – | – | – | – | – | 0.576 | 0.728 | 0.854 | 0.797 | 0.617
NCI-H522 | 0.671 | 0.711 | 0.861 | 0.595 | 0.764 | 0.827 | 0.828 | 0.957 | – | – | – | – | – | – | – | – | – | –
NCI-H650 | 0.431 | 0.509 | 0.364 | 0.32 | 0.316 | 0.305 | 0.308 | 0.619 | – | – | – | – | – | 1.08 | 0.893 | 1.05 | 0.735 | 0.83
NCI-H661 | 0.6 | 0.725 | 0.722 | 0.676 | 0.742 | 0.786 | 0.806 | 0.762 | – | – | – | – | – | – | 0.54 | 0.641 | 0.442 | 0.525
NCI-H1299 | – | – | – | – | – | – | – | – | 1.04 | 1.09 | 1.06 | 1.01 | 1.08 | 0.994 | 0.961 | 1.16 | 1 | 1.02
NCI-H1563 | 0.688 | 0.709 | 0.731 | 0.679 | – | – | – | – | – | – | – | – | – | 1.14 | 1.26 | 1.39 | 1.23 | 1.22
NCI-H1623 | 0.422 | 0.407 | 0.457 | 0.432 | – | – | – | – | – | – | – | – | – | – | – | – | – | –
NCI-H1648 | – | 0.266 | 0.228 | 0.301 | 0.415 | 0.441 | – | 0.476 | – | – | – | – | – | – | – | – | – | –
NCI-H1650 | 0.599 | 0.859 | 0.547 | 0.564 | 0.528 | 0.534 | 0.576 | 0.572 | 1.39 | 1.33 | 1.08 | 1.28 | 0.974 | – | – | – | – | –
NCI-H1792 | 0.679 | 0.872 | 0.73 | 1.06 | – | – | – | – | 0.852 | 0.773 | 0.655 | 0.577 | 0.616 | 0.363 | 0.586 | 0.498 | 0.475 | 0.481
NCI-H2170 | 0.653 | 0.759 | 0.683 | 0.866 | 0.683 | 0.834 | 0.787 | 0.91 | – | 0.478 | 0.6 | 0.534 | 0.32 | – | – | – | – | –
NCI-H2342 | 0.518 | 0.587 | 0.509 | 0.659 | 0.789 | 0.778 | 0.751 | 0.785 | – | – | – | – | – | – | – | – | – | –
SW 900 | 0.412 | 0.559 | 0.518 | 0.571 | 0.435 | 0.444 | 0.364 | 0.295 | – | – | – | – | – | – | – | – | – | –

Source: the supplement of paper PMC10307832
